Assay results: publication PMC4294780, “Sustained signalling by PTH modulates IP3 accumulation and IP3 receptors through cyclic AMP junctions” (Journal of Cell Science, 2015)
Ends that are not written are not given here.

Assays:
HEK-PR1 cells [1] = test: Potentiation of carbachol-evoked Ca2+ signals by 8-Br-cAMP in HEK-PR1 cells; assay type: cell-based; details: n = 3; for Peak [Ca2+]c: 8-Br-cAMP 10 mM, then carbachol 20 µM; for pEC50 / Δ[Ca2+]c (maximal potentiated increase): carbachol 20 µM
Excerpt: (§1) Results are shown as mean±s.e.m.

EPAC1 and EPAC2 = test: Effect of EPAC antagonist ESI-09 on Ca2+ signals in HEK-PR1 cells; assay type: cell-based
Description: (§2) HEK-PR1 cells (∼10^5 PTH1R/cell) were cultured as described previously ([Tovey et al., 2008]). Measurements of [Ca^2+]c in cell populations were performed as previously described ([Tovey et al., 2008]). Briefly, confluent cultures of HEK-PR1 grown in 96-well plates were loaded with fluo 4 by incubation with fluo 4AM (2 µM, 20°C) in HEPES-buffered saline (HBS). HBS had the following composition (in mM): NaCl 135, KCl 5.9, MgCl2 1.2, CaCl2 1.5, HEPES 11.6 and glucose 11.5, pH 7.3. After 1 h, loading medium was replaced with HBS, and after 45 min cells were used at 20°C for measurements of [Ca^2+]c. A fluorescence plate-reader equipped to allow automated fluid additions (FlexStation 3, Molecular Devices, Sunnyvale, CA, USA) was used to record fluorescence at intervals of 1.44 s (excitation at 485 nm; emission at >525 nm) ([Tovey et al., 2006]).

PKA = test: Effect of PKA inhibitor H89 on PTH(1-34)-evoked cAMP and potentiated Ca2+ signals; assay type: cell-based; details: H89 10 µM, 20 min; for intracellular cAMP in H89-treated cells relative to matched control cells: mean±s.e.m., n = 3, SEM
Description: These assays were performed under conditions that replicate those used for measurements of [Ca^2+]c. HEK-PR1 cells were grown in 24-well plates until ∼90% confluent, [^3H]adenine (2 µCi per well) was then added to the culture medium. After 2 h at 37°C in 5% CO2, the medium was removed, cells were washed with HBS, and used for experiments in HBS at 20°C. Because many cells extrude cAMP into the extracellular medium ([Copsel et al., 2011]), reactions were terminated by first removing the medium and then adding ice-cold trichloroacetic acid (5% v/v, 1 ml). After 30 min on ice, [^3H]cAMP was separated from other ^3H-adenine nucleotides by sequential column chromatography on Dowex cation exchange resin and alumina as previously described ([Pantazaka et al., 2013]). The activity of the eluates was determined by liquid scintillation counting and amounts of [^3H]cAMP are expressed as percentages of the sum of the activities recovered in the [^3H]cAMP, [^3H]ADP and [^3H]ATP fractions.

adenylyl cyclase = test: Potentiation of carbachol-evoked Ca2+ signals by NKH477 in HEK-PR1 cells; assay type: cell-based; details: n = 3; for Peak [Ca2+]c: NKH477 200 µM, then carbachol 20 µM; for pEC50 / Δ[Ca2+]c (maximal potentiated increase): carbachol 20 µM
Excerpt: as §1

PTH1R [2] = molecular target: T1, PTH1R (Homo sapiens, UniProt Q03431); test: Potentiation of carbachol-evoked Ca2+ signals by PTH analogues (fluo 4, HEK-PR1 cell populations); assay type: cell-based; details: then carbachol 20 µM in Ca2+-free HBS, n = 3, read-out: peak [Ca2+]c pEC50 (converted)
T1 construct: expressed in transfected cells
T1 sequence (Q03431 27-593): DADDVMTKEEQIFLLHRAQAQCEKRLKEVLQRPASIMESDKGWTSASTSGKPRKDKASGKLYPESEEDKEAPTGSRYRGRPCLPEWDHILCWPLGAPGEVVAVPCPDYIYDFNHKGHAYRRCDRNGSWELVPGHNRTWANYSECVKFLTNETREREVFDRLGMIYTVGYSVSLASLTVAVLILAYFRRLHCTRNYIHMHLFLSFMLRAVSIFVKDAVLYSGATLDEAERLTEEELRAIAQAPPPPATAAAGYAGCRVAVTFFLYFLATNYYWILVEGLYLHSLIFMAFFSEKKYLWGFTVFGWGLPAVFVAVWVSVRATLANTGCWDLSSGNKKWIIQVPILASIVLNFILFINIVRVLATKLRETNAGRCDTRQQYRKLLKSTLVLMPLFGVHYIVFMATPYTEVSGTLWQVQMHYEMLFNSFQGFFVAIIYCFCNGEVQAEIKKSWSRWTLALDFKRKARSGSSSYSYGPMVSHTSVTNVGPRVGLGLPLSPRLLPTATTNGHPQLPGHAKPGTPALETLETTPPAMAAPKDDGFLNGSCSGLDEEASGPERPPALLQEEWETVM
Description: Briefly, confluent cultures of HEK-PR1 grown in 96-well plates were loaded with fluo 4 by incubation with fluo 4AM (2 µM, 20°C) in HEPES-buffered saline (HBS). […] After 1 h, loading medium was replaced with HBS, and after 45 min cells were used at 20°C for measurements of [Ca^2+]c.
Concentration–effect relationships were fitted to Hill equations using Prism version 5 (GraphPad, San Diego, CA, USA). Results are shown as mean±s.e.m. […] All statistical comparisons are therefore between experiments performed in parallel and analysed using paired Student's t-tests.

PTH1R [3] = molecular target: T1, PTH1R; test: Intracellular cAMP accumulation ([3H]adenine labelling) in HEK-PR1 cells; assay type: cell-based; details: n = 3, read-out: cAMP pEC50 (converted)
Description: These assays were performed under conditions that replicate those used for measurements of [Ca^2+]c. HEK-PR1 cells were grown in 24-well plates until ∼90% confluent, [^3H]adenine (2 µCi per well) was then added to the culture medium. After 2 h at 37°C in 5% CO2, the medium was removed, cells were washed with HBS, and used for experiments in HBS at 20°C. […] The activity of the eluates was determined by liquid scintillation counting and amounts of [^3H]cAMP are expressed as percentages of the sum of the activities recovered in the [^3H]cAMP, [^3H]ADP and [^3H]ATP fractions.

HEK-PR1 cells [4] = test: Cytosolic IP3 measured with FRET sensor in single HEK-PR1 cells; assay type: cell-based; details: carbachol 1 mM; mean±s.e.m., n = 17 coverslips; SEM
Excerpt: A FRET sensor based on the IP3-binding core of IP3R1 ([Tovey and Taylor, 2013]) was used to measure cytosolic concentrations of IP3 in single HEK-PR1 cells under conditions similar to those used for measurements of [Ca^2+]c. The plasmid and properties of the sensor were as described previously ([Tovey and Taylor, 2013]). The sensor comprises the IP3-binding core attached through short linkers to enhanced cyan fluorescent protein (CFP) at its N-terminus and enhanced yellow fluorescent protein (YFP) at its C-terminus (see inset to Fig. 3A). IP3 binding causes a decrease in FRET. […] An Olympus IX71 inverted fluorescence microscope with a 40× objective and a 440 nm/520 nm dual band-pass dichroic mirror was used to record fluorescence from widefield images after excitation at 440 nm (to excite CFP). A Luca EMCCD camera (Andor Technology, Belfast, UK) was used to collect emitted fluorescence simultaneously at 1-s intervals from YFP (520–550 nm) and CFP (455–485 nm) using a Cairn Optosplit 2 image-splitter fitted with a 495-nm dichroic mirror. After correction for background fluorescence (determined from cytosolic areas of non-transfected cells), FRET ratios are presented as the ratio of CFP emission to YFP emission, so that the ratio increases (decreased FRET) after IP3 binding.

PTH1R [5] = details: Table S1, properties from the literature; ref Cupp et al., 2013 and others listed in Table S1; cited from earlier work
PTH1R [6] = system: PTH1R; set-up: method as in 2 sources, one per row (each row's own in cited_ref): ref Cupp et al., 2013 and others listed in Table S1 ||| ref supplementary material Table S1; details: Table S1, properties from the literature; ref Cupp et al., 2013 and others listed in Table S1; cited from earlier work
PTH1R [7] = molecular target: T1, PTH1R; test: Ca2+ signals directly evoked by PTH analogues alone in HEK-PR1 cells; assay type: cell-based; details: highest concentrations of the analogue, no carbachol (Fig. 1F)
Description: as §2

[8] = PTH analogue 1 min, mean ± s.e.m., SEM

Molecule: Nc1ncnc2c1nc(Br)n2[C@@H]1O[C@@H]2COP(=O)(O)O[C@H]2[C@H]1O [8-Br-cAMP]
- Peak [Ca2+]c (HEK-PR1 cells [1]; 5 min): 386 ± 21 nM
- Peak [Ca2+]c (HEK-PR1 cells [1]; 30 min): 222 ± 24 nM
- pEC50 (HEK-PR1 cells [1]; 8-Br-cAMP 5 min): 3.5 ± 0.1 /M
- Δ[Ca2+]c (maximal potentiated increase) (HEK-PR1 cells [1]; 8-Br-cAMP 5 min): 207 ± 7 nM
- pEC50 (HEK-PR1 cells [1]; 8-Br-cAMP 30 min): 3.7 ± 0.1 /M
- Δ[Ca2+]c (maximal potentiated increase) (HEK-PR1 cells [1]; 8-Br-cAMP 30 min): 113 ± 5 nM

Molecule: CC(C)(C)c1cc(C(=O)C(C#N)=NNc2cccc(Cl)c2)no1 [ESI-09, 3-[5-(tert-butyl)isoxazol-3-yl]-2-[2-(3-chlorophenyl)hydrazono]-3-oxopropanenitril]
- effect on Ca2+ signals evoked by carbachol alone (EPAC1 and EPAC2; ESI-09 10 µM, 5 min): no significant effect
- effect on concentration-dependent potentiation by PTH(1-34) of carbachol-evoked Ca2+ signals (EPAC1 and EPAC2; ESI-09 10 µM, 5 min): no significant effect
- effect on small Ca2+ signals directly evoked by high concentrations of PTH(1-34) (EPAC1 and EPAC2; ESI-09 10 µM, 5 min): no significant effect
- effect on potentiation of carbachol-evoked Ca2+ signals by 8-Br-cAMP (EPAC1 and EPAC2; ESI-09 10 µM, added 5 min before 8-Br-cAMP): unaffected
- effect on carbachol-evoked Ca2+ release (EPAC1 and EPAC2; higher concentrations of ESI-09 (50 µM) or more prolonged treatments (15 min)): directly inhibited carbachol-evoked Ca^2+ release

Molecule: Cl.Cl.O=S(=O)(NCCNCC=Cc1ccc(Br)cc1)c1cccc2cnccc12 [H89, N-[2-[[3-(4-bromophenyl)-2-propenyl]amino]ethyl]-5-isoquinolinesulfonamide dihydrochloride]
- effect of PKA inhibition on acute and sustained effects of PTH(1-34), NKH477 or 8-Br-cAMP on carbachol-evoked Ca2+ signals (PKA): no effect
- intracellular cAMP in H89-treated cells relative to matched control cells (PKA; 3 µM PTH(1-34) for 1 min): 95±0.1%
- intracellular cAMP in H89-treated cells relative to matched control cells (PKA; 3 µM PTH(1-34) for 60 min): 98±0.2%

Molecule: C=C[C@@]1(C)CC(=O)[C@]2(O)[C@@]3(C)[C@@H](O)CCC(C)(C)[C@@H]3C(OC(=O)CCN(C)C)[C@H](OC(C)=O)[C@@]2(C)O1.Cl (stereo partly drawn) [NKH477, N,N-dimethyl-(3R,4aR,5S,6aS,10S,10aR,10bS)-5-(acetyloxy)-3-ethenyldodecahydro-10,10b-dihydroxy-3,4a,7,7,10a-pentamethyl-1-oxo-1H-naphtho[2,1-b]pyran-6-yl ester β-alanine hydrochloride]
- Peak [Ca2+]c (adenylyl cyclase; 2 min): 331 ± 20 nM
- Peak [Ca2+]c (adenylyl cyclase; 30 min): 256 ± 12 nM
- pEC50 (adenylyl cyclase; NKH477 2 min): 5.0 ± 0.3 /M
- Δ[Ca2+]c (maximal potentiated increase) (adenylyl cyclase; NKH477 2 min): 257 ± 3 nM
- pEC50 (adenylyl cyclase; NKH477 5 min): 5.0 ± 0.1 /M
- Δ[Ca2+]c (maximal potentiated increase) (adenylyl cyclase; NKH477 5 min): 225 ± 9 nM
- pEC50 (adenylyl cyclase; NKH477 15 min): 5.0 ± 0.1 /M
- Δ[Ca2+]c (maximal potentiated increase) (adenylyl cyclase; NKH477 15 min): 155 ± 10 nM
- pEC50 (adenylyl cyclase; NKH477 30 min): 6.0 ± 0.1 /M
- Δ[Ca2+]c (maximal potentiated increase) (adenylyl cyclase; NKH477 30 min): 124 ± 24 nM

Molecule: CC[C@H](C)[C@H](NC(=O)[C@H](CCC(=O)O)NC(=O)[C@H](CO)NC(=O)[C@@H](NC(=O)[C@@H](N)Cc1ccc(O)cc1)C(C)C)C(=O)N[C@@H](CCC(N)=O)C(=O)N[C@@H](CC(C)C)C(=O)N[C@@H](CCSC)C(=O)N[C@@H](Cc1c[nH]cn1)C(=O)N[C@@H](CC(N)=O)C(=O)N[C@@H](CC(C)C)C(=O)NCC(=O)N[C@@H](CCCCN)C(=O)N[C@@H](Cc1c[nH]cn1)C(=O)N[C@@H](CC(C)C)C(=O)N[C@@H](CC(N)=O)C(=O)N[C@@H](CO)C(=O)N[C@@H](CCSC)C(=O)N[C@@H](CCC(=O)O)C(=O)N[C@@H](CCCNC(=N)N)C(=O)N[C@H](C(=O)N[C@@H](CCC(=O)O)C(=O)N[C@@H](Cc1c[nH]c2ccccc12)C(=O)N[C@@H](CC(C)C)C(=O)N[C@@H](CCCNC(=N)N)C(=O)N[C@@H](CCCCN)C(=O)N[C@@H](CCCCN)C(=O)N[C@@H](CC(C)C)C(=O)N[C@@H](CCC(N)=O)C(=O)N[C@@H](CC(=O)O)C(=O)N[C@H](C(=O)N[C@@H](Cc1c[nH]cn1)C(=O)N[C@@H](CC(N)=O)C(=O)N[C@@H](Cc1ccccc1)C(=O)O)C(C)C)C(C)C [Tyr1PTH(1-34)]
- EC50 (PTH1R [2]; [8]): 200 nM
- EC50 (PTH1R [2]; PTH analogue 30 min): 39.8 nM
- EC50 (PTH1R [3]; PTH analogue 1 min): 794 nM
- EC50 (PTH1R [3]; PTH analogue 30 min): 200 nM

Molecule: C[N+](C)(C)CCOC(N)=O [carbachol, Carbamylcholine chloride]
- transfected cells responding with discernible FRET changes (HEK-PR1 cells [4]): 52±2%

Molecule: PTH(3-34): PTH analogue not used in this study, included for comparison with earlier work (SEIQLMHNLGKHLNSMERVEWLRKKLQDVHNF; Parathyroid hormone; UniProt P01270 34-65, looked up, fragment)
- Gq (PLC) (PTH1R [5]): Inactive
- Signalling to AC from internalized PTH1R (PTH1R [6]): No

Molecule: SVSEIQLMHNLGKHLNSMERVEWLRKKLQDV [PTH(1-31), analogue of PTH that stimulates adenylyl cyclase]
- direct Ca2+ signal evoked by the analogue alone (PTH1R [7]): directly evoked small Ca^2+ signals
- Signalling to AC from internalized PTH1R (PTH1R [6]): Yes

Molecule: VSEIQLMHNLGKHLNSMERVEWLRKKLQDVHNFVALG [PTH(2-38)]
- EC50 (PTH1R [2]; [8]): 126 nM
- EC50 (PTH1R [2]; PTH analogue 30 min): 50.1 nM
- EC50 (PTH1R [3]; PTH analogue 1 min): 316 nM
- EC50 (PTH1R [3]; PTH analogue 30 min): 63.1 nM
